Experimental data taken from patent US20150197802A1 (priority 2012, published 2015).
Like-named read-outs stand apart in the source and are kept apart here.

How the values were obtained:
HPTC = format: cell-based, human
renal proximal tubule = conditions: cited from earlier work; for classification of the test compound with regard to nephrotoxicity: group of the test compound; for nephrotoxic effects in humans: clinical, clinically relevant concentrations
[1] = test system: human primary renal proximal tubular cells (HPTC); assay: IL-6 and IL-8 expression (qPCR) in renal proximal tubular cells after 16 h exposure

Q: With `[Cl][Cd][Cl]` [CdCl2] as the compound, how does the “IL-8 expression, up-regulation compared with the other marker genes tested” value (HPTC; two batches of HPTC, high doses (2.5 mg/ml gentamicin, 10 mg/ml CdCl2), FIG. 1) read?
A: The value was “highest levels of up-regulation”.

Q: For `[Cl][Cu][Cl]` [CuCl2], which “classification of the test compound with regard to nephrotoxicity” value (“classification of the test compound” for short) (renal proximal tubule) is on record?
A: Its value is “PT-specific nephrotoxin”.

Q: With `N.N.[Cl][Pt][Cl]` [cisplatin] as the compound, how does the cell death ([1]; HPTC 1, highest concentration tested, dose-response FIG. 2) read?
A: The cell death was “massive cell death”.

Q: Which “classification of the test compound” value (renal proximal tubule) does the source give for `C[C@@H]1C[C@H]2[C@@H]3CCC4=CC(=O)C=C[C@]4(C)[C@@]3(F)[C@@H](O)C[C@]2(C)[C@@]1(O)C(=O)CO` [dexamethasone] here?
A: Its value is “not nephrotoxic”.

Q: Which “classification of the test compound” value (renal proximal tubule) does the source give for `OCCO` [ethylene glycol] here?
A: Its value is “non-PT-specific nephrotoxin”.

Q: For `C[C@H](Cn1cnc2c(N)ncnc21)OCP(=O)(O)O` [tenofovir], which “nephrotoxic effects in humans” value (renal proximal tubule) is on record?
A: The value was “injures the renal proximal tubules”.

Q: For `CN(C)[C@@H]1C(O)=C(C(N)=O)C(=O)[C@@]2(O)C(O)=C3C(=O)c4c(O)cccc4[C@@](C)(O)[C@H]3C[C@@H]12` [tetracycline], which “test result in the IL-6/IL-8 expression method (positive = predicted PT-specific nephrotoxin)” value ([1]; 1 μg/ml to 1000 μg/ml, 16 h) is on record?
A: Its value is “positive”.

Q: What about the “nephrotoxic effects in humans” value (renal proximal tubule) of the same compound?
A: The value was “usually no obvious nephrotoxic effects, but can induce AKI and ESRD in patients with pre-existing kidney disease”.

Q: For gentamicin, which “IL-8 expression, up-regulation compared with the other marker genes tested” value (HPTC) is on record?
A: The value was “highest levels of up-regulation”.
